The source of these data is patent publication US11439639B2, “Pyrazine-containing compound” (CalciMedica, Inc., priority 2015, dated 2022).

The subject of series [1] is Mouse PACs. The experiment in a line: TLCS-induced Ca2+ entry in mouse PACs (cytosolic calcium, F345/F380). The series is classed as cell-based. As to conditions: 500 μM TLCS; Compound I at 1 or 3 μM. The method, then: Mouse PACs were treated with 500 μM TLCS and either 0, 1μM or 3 μM of the CRAC inhibitor Compound I. Cytosolic Calcium levels (measured as F345/ F380 ratios) were measured for each treatment. TLCS releases Ca^2+ from intracellular stores (not shown), initiating SOCE. […] The results are depicted in FIG. 11.

Series [2] has as its system Mouse PACs. Description: CPA-induced store-operated Ca2+ entry (calcium reuptake) in mouse PACs. The series is classed as cell-based. The conditions noted are these: CPA-treated mouse PACs, excess Calcium given 15 minutes after release. As to the method: Mouse PACs were isolated and assayed for the effect of CRAC inhibitors on calcium re-uptake into the ER. Cells were treated with cyclopiazonic acid (CPA) alone (FIG. 4A) or in combination with the CRAC inhibitor Compound I (FIG. 4B) to activate CRAC channels to release Ca^2+. At 15 minutes following Calcium release, cells were provided with an excess of Calcium and monitored for Calcium uptake into the ER.

Series [3] has as its system T cells in bulk human PBMCs. The experiment in a line: Cytokine release from anti-CD3/anti-CD28 stimulated human PBMCs (Luminex). The series is classed as cell-based. As to conditions: plate-bound anti-CD3/anti-CD28, 10% serum, 48 hrs. As to the method:
Compound I was tested for its inhibitory effect on a number of cytokines. Cytokines INF-gamma, IL-4, and IL-4 receptors of which are expressed on Acinar cells, cytokines IL-lbeta, IL-6, IL-10 and TNF-alpha, expressed in Acinar cells, and IL-2 and IL-7, cytokines important in T-cell function, were tested for an inhibitory effect of the CRAC inhibitor Compound I. T cells in bulk human PBMCs were stimulated with plate-bound anti-CD3/anti-CD28 in buffer +10% serum for 48 hrs. Released cytokines were measured by Luminex at Millipore.

For a further series, the target named is Orai2/STIM1 channels (Homo sapiens, UniProt Q96SN7). The experiment in a line: CRAC channel inhibition, Orai2/STIM1. The series is classed as cell-based. As to the method:
(§1) Compound I and GSK-7975A were assayed for their inhibitory effect on CRAC channels. Channels comprising Orai1/STIM1 and Orai2/STIM1 were assayed.

Series [4] concerns Mouse PACs. The experiment in a line: CCK-induced Ca2+ entry in mouse PACs. The series is classed as cell-based. The conditions noted are these: CCK 10 nM, then 1.8 mM Calcium; pretreatment with inhibitor. The method, then:
Mouse PACs were monitored for their Calcium uptake upon treatment with CCK at 10 nM. Cells were treated with CCK, and then provided with 1.8 mM Calcium and Calcium reuptake was monitored. […] Compound I pretreatment reduced Calcium re-uptake to near 0% of the control. GSK-7975A reduced calcium reuptake to about 30% of the control.

The subject of the next series is Mouse Acinar cells. The experiment in a line: TLCS-induced amylase release in mouse acinar cells. As to conditions: TLCS-treated mouse acinar cells, compared with EGTA. The series is classed as cell-based. As to the method:
Amylase release from PACs has an ER calcium-dependent and a CRAC/cytosolic calcium-dependent component. The calcium dependent component is blocked by introduction of the divalent cation chelating agent EGTA. Mouse Acinar cells were treated with TLCS and either vehicle, EGTA, or a CRAC inhibitor such as Compound I, GSK-7975A or Compound II and monitored for Amylase release. It is observed that CRAC inhibitors mimicked EGTA in their effect on Amylase release.

For another series, the system named is Candid-1 JUNV. The series is classed as cell-based, Junin virus. The conditions noted are these: VeroE6 cells; 1, 10, 25, 50 μM Compound I.
A further series deals with Orai1/STIM1 channels (Homo sapiens, UniProt Q96D31). Description: CRAC channel inhibition, Orai1/STIM1. It counts as cell-based. As to conditions: for IC50: Orai1/STIM1 channels. As to the method:
as §1

For series [5], the system named is caerulein-induced acute pancreatitis. Description: Serum amylase and serum lipase in mouse caerulein model of acute pancreatitis. It counts as in vivo. The conditions noted are these: doses up to 20 mg/kg. As to the method: Mice were either untreated (Normal), treated with CCK only (vehicle), or treated with CCK in combination with CsA or a CRAC inhibitor at the indicated dose. Serum amylase activity (FIG. 9A) and Serum Lipase activity (FIG. 9B) (IU/L) were measured.

Series [6] in a line: Compound levels in the pancreas after i.p. injection. The series is classed as in vivo, mouse. The conditions noted are these: as a function of dose.
For series [7], the system named is caerulein-induced pathology in the pancreas. Description: Therapeutic/prophylactic mouse caerulein model, histopathology scores. The series is classed as in vivo. The method, then: Seven hourly i.p. injections of caerulein were given to induce pancreatitis, with animals sacrificed 8 hr after the 1st injection. Compound I was administered i.p. either 30 min before the 1st caerulein injection (prophylactic), or after the 3rd injection (therapeutic). CsA was administered p.o. on the same schedule as Compound I. The results are depicted in FIG. 10. Histopathology scores were measured in light of observation of Acinar cell degeneration, coagulation necrosis, and inflammation and edema measurements. Compound I produced a significant 35% reduction in caerulein-induced pathology in the pancreas when administered after the 3rd caerulein injection, consistent with efficacy in a therapeutic mode.

The subject of another series is murine T cells. Description: Store-operated Ca2+ entry in murine T cells under Th1-, Th2-, Th17-polarizing conditions. It counts as cell-based. As to conditions: 1 μM Compound I, Th17 versus naive. As to the method:
Naive and stimulated murine T cells cultured under Th1-, Th2-, and Th17-polarizing conditions are treated with either DMSO, DMSO plus 500 μM TLCS, or DMSO plus 500 μM TLCS plus 1 μM of the CRAC inhibitor Compound I. Store-operated Ca^2+ entry (SOCE) is quantified in each treatment.

Series [8] concerns Mouse Pancreatic Acinar Cells (PACs). The experiment in a line: TLCS-induced necrosis in mouse pancreatic acinar cells (propidium iodide uptake). The series is classed as cell-based. The method, then: Mouse Pancreatic Acinar Cells (PACs) were extracted and incubated with either a carrier (control) or with natural bile acid TLCS (taurolithocholic acid 3-sulfate) in the absence or presence of GSK-7975A. Cells were contacted with propidium iodide to assay for cell necrosis. TLCS treatment to individual cells in vitro mimics the effect of a gall stone or other blockage in pancreatic secretion in vivo.
Mouse PACs were treated with either DMSO, DMSO plus 500 μM TLCS, or DMSO plus 500 μM TLCS plus 1 μM of the CRAC inhibitor Compound I. Cell necrosis was measured as % PI uptake. The CRAC inhibitor Compound I inhibits TLCS-induced necrosis in mouse PACs.

Series [9] deals with caerulein-induced pathology in the mouse pancreas. The experiment in a line: Mouse caerulein model of acute pancreatitis, prophylactic i.p. dosing, pancreas pathology. The series is classed as in vivo. As to conditions: C57B6 mice. The method, then:
Mice were treated with a CRAC inhibitor or a vehicle prophylactically, and then challenged with CCK to trigger acute pancreatitis.

The test system of another series is Th17 cells. Description: Cytokine production by Th1, Th2 and Th17 cells. It counts as cell-based, murine. As to conditions: compared with IFN-γ and IL-4 production by Th1 and Th2 cells.
Series [10] deals with Mouse PACs. The experiment in a line: Rate of store-operated Calcium entry in mouse PACs, dose dependence. The series is classed as cell-based. Set-up: block of reuptake: dose or concentration left out as unconfirmed. As to conditions: for activity at 0.7 µM: Mus musculus, 700 nM of inhibitor, read-out: rate of store-operated Calcium entry, % of control levels. The method, then:
Mouse PACs were treated with CRAC inhibitors Compound I (FIG. 5A) or GSK-7975A (FIG. 5B) and monitored for their rate of Calcium uptake. […] Compound I blocks 100% of reuptake […].

Series [11] has as its system Mouse acute pancreatitis models. Description: Mouse acute pancreatitis models (Caerulein, TLCS, FAEE), pancreas histopathology. The series is classed as in vivo. The conditions noted are these: TLCS or FAEE model, doses giving tissue levels 10× or 40× the IC50, more pronounced at 40×. An excerpt:
Mouse acute pancreatitis models were used to evaluate the effect of a CRAC inhibitor on pancreas histopathological progression. Caerulein is used to hyper-stimulate CCK receptors in the normal Calcium signaling pathway in the mouse pancreas. TLCS is used to induce acute pancreatitis through simulation of an excess of bile acid, as would be experienced in a gallstone induced acute pancreatitis. Fatty acid ethyl esters (FAEE) are used to simulate alcohol-induced acute pancreatitis. Mice were treated with the acute pancreatitis agent (Caerulin, FIG. 2A, TLCS, FIG. 2B or FAEE, FIG. 2C) alone or with the CRAC inhibitor GSK-7975A at either 10× or 40× the IC50 of the CRAC inhibitor.

A further series relates to Human PACs. Description: TLCS-induced necrosis in human pancreatic acinar cells (propidium iodide). The series is classed as cell-based. The conditions noted are these: TLCS plus 10 μM GSK-7975A, TLCS alone about 45%, no TLCS about 23%. As to the method: Human PACs were extracted and incubated with either a carrier (control) or with natural bile acid TLCS in the absence or presence of GSK-7975A. Cells were contacted with propidium iodide to assay for cell necrosis. TLCS treatment to individual cells in vitro mimics the effect of a gall stone or other blockage in pancreatic secretion in vivo.

Molecules are shown by their SMILES.

Chain of Orai1/STIM1 channels (Q96D31 whole entry): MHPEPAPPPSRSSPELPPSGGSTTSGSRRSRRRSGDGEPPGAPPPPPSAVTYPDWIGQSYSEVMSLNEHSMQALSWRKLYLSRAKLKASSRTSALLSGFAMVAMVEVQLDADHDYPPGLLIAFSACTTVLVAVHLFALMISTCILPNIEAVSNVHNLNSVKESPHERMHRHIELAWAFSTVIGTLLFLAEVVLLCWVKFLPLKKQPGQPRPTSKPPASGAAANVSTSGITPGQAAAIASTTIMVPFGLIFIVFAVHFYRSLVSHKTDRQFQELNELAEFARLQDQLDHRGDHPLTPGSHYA
Chain of Orai1/STIM1 channels (Q13586 23-685 partner): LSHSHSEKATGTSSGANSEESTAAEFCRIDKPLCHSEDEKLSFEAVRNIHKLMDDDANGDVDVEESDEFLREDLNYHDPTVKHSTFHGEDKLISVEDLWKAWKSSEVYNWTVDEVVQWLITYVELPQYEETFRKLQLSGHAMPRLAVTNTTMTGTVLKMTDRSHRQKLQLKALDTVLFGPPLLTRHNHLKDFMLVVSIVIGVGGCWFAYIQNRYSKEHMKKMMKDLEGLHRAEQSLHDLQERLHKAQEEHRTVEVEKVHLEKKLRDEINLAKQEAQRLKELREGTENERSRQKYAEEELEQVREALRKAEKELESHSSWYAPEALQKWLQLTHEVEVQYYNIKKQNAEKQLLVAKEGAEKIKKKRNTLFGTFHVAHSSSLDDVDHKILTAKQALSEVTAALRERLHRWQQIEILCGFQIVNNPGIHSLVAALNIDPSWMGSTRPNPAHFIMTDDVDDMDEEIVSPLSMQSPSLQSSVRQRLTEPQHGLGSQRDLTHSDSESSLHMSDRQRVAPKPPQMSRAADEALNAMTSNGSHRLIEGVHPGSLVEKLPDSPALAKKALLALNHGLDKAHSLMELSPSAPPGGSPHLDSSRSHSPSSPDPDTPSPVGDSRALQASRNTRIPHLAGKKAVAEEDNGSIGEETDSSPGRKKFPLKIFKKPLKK
Chain of Orai2/STIM1 channels (Q96SN7 whole entry): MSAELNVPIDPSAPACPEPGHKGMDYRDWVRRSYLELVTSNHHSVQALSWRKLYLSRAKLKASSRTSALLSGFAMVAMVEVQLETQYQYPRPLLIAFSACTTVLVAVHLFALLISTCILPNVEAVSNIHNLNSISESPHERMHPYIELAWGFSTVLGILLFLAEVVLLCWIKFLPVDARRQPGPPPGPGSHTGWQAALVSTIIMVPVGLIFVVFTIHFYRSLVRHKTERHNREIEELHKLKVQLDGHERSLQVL
Chain of Orai2/STIM1 channels (Q13586 23-685 partner): as the sequence (Q13586 23-685 partner) above

Turning to `Cc1cccc(F)c1C(=O)Nc1cnc(-c2cc3c(cc2Cl)OC(F)(F)O3)cn1` [Compound I, N-(5-(6-chloro-2,2-difluorobenzo[d][1,3]dioxol-5-yl)pyrazin-2-yl)-2-fluoro-6-methylbenzamide], the “TLCS-induced Ca2+ entry” value with Mouse PACs [1] is listed as “completely blocked”. In addition, the “reuptake of Calcium” value with Mouse PACs [2] is listed as “do not demonstrate reuptake of Calcium”. Also, in series [3], the “release of multiple cytokines” value is “potently inhibits”. Further, the IC50 (commonly the midpoint of a concentration-inhibition curve) on Orai2/STIM1 channels was 895 nM. In addition, in the series on Mouse PACs [4], the “Calcium re-uptake, % of the control” value is approximately 0%. For the same molecule, the “effect on Amylase release” value in the series with Mouse Acinar cells was “mimicked EGTA”. Further, the “JUNV virus production (foci)” value in the series on Candid-1 JUNV was “statistically significant, dose-dependent reduction”. In addition, the “potency on Orai1-type CRAC channels compared to GSK-7975A” value at Orai1/STIM1 channels (Compound I versus GSK-7975A) is given as “about 4 fold”. On Orai1/STIM1 channels, the IC50 is 119 nM. Moreover, in series [5], the “caerulein-induced serum amylase activity” value is “significant and dose-dependent reductions”; the “caerulein-induced serum lipase activity” value is “significant and dose-dependent reductions”. The “Compound I levels in the pancreas” value in [6] was “dose-proportional increase”. Also, the “reduction in caerulein-induced pathology in the pancreas” value in series [7] (prophylactic: i.p. 30 min before the 1st caerulein injection) is given as 26%. Also, in [7] (therapeutic: i.p. after the 3rd caerulein injection), the “reduction in caerulein-induced pathology in the pancreas” value is given as 35%. The “Store-operated Ca2+ entry (SOCE)” value in the series with murine T cells is “blocks SOCE stronger in differentiated Th17 cells”. Further, the “TLCS-induced necrosis (% PI uptake)” value in [8] (500 μM TLCS plus 1 μM Compound I) is listed as “inhibits”. Further, the “caerulein-induced pathology in the mouse pancreas” value in [9] is “significant and dose-dependent reductions”. For the same molecule, in the series on Th17 cells, the “IL-17A production by Th17 cells” value was “more severely affected”. Besides, in the series on Mouse PACs [10], the block of reuptake worked out at 100% and the activity at 0.7 µM stood at 50%.
As to `Cc1nc2cc(C)c(-c3cnc(NC(=O)c4c(F)ccc(F)c4F)s3)cc2o1` [Compound II, N-(5-(2,5-dimethylbenzo[d]oxazol-6-yl)thiazol-2-yl)-2,3,6-trifluorobenzamide], in the series with Mouse Acinar cells, the “effect on Amylase release” value was “mimicked EGTA”.
`O=C(Nc1ccn(Cc2ccc(O)cc2C(F)(F)F)n1)c1c(F)cccc1F` [GSK-7975A, 2,6-Difluoro-N-(1-(4-hydroxy-2-(trifluoromethyl)benzyl)-1H-pyrazol-3-yl)benzamide, reference compound]: the IC50 against Orai2/STIM1 channels turned out to be 1450 nM; at Orai1/STIM1 channels, 398 nM. For the same molecule, the “Calcium re-uptake, % of the control” value in the series with Mouse PACs [4] was “about 30%”. For the same molecule, in the series with Mouse Acinar cells, the “effect on Amylase release” value is “mimicked EGTA”. Also, the total histopathology score entry in [11] is given as “substantially reduces”. The percent necrosis result in series [8] (TLCS plus 10 μM GSK-7975A, TLCS alone about 45%, no TLCS about 10%) is recorded as “about 23%”; with Human PACs, “about 30%”. Further, the activity at 0.7 µM with Mouse PACs [10] amounted to 50%.
